Results on five molecules are retold here after patent US5061794A, “Cephalosporin derivatives, and antibacterial agents” (priority 1986, dated 1991).

Each structure is given as a SMILES string. ≈ marks a conversion by molar mass, not a printed value. Counter-ions that a name gives are not always drawn. Like-named read-outs stand apart in the source and are kept apart here.

Test [1] relates to Ps. cepacia 23. The experiment in a line: in vitro antibacterial activity, agar plate dilution method (MIC). The settings on record: Burkholderia cepacia, 23, 16 h, read-out: Minimum Inhibitory Concentration (MIC). It counts as cell-based, Pseudomonas cepacia. In a few lines: (§1)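 MICs (μg/ml) were read after 16 hours at 37°C. Test strains, grown overnight in Mueller Hinton broth, were spotted at 10^6 CFU/ml onto Mueller Hinton agar plates containing the compounds at a range of concentrations.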

The subject of test [2] is P. vulgaris No. 33. Described as above. It counts as cell-based. As to conditions: Proteus vulgaris, NO.33, 16 h, read-out: Minimum Inhibitory Concentration (MIC), *P. vulgaris No. 33, lactamase-producing strain; 10^6 CFU/ml. Put shortly:
as §1

For test [3], the system named is P. vulgaris HX-19. The description is as above. As to conditions: Proteus vulgaris, HX19, 16 h, P. vulgaris HX-19; 10^6 CFU/ml; read-out: Minimum Inhibitory Concentration (MIC). It counts as cell-based. Put shortly:
as §1

Test [4] concerns E. coli NIHJ JC2. The test is described as above. It counts as cell-based. The settings on record: Escherichia coli, NIHJJC2, 16 h, read-out: Minimum Inhibitory Concentration (MIC), E. coli NIHJ JC2, 10^6 CFU/ml, 37° C. In a few lines:
as §1

The test system of test [5] is K. pneumoniae PCI-602. The test is described as above. It counts as cell-based. As to conditions: Klebsiella pneumoniae, PCI602, 16 h, 10^6 CFU/ml. In a few lines: as §1
Test [6] concerns K. pneumoniae No. 42. The description is as above. It counts as cell-based. As to conditions: Klebsiella pneumoniae, NO.42, 16 h, read-out: Minimum Inhibitory Concentration (MIC), *K. pneumoniae No. 42, lactamase-producing strain; 10^6 CFU/ml. Put shortly: as §1
The subject of test [7] is S. marcescens IAM 1184. Described as above. It counts as cell-based. The settings on record: Serratia marcescens, IAM1184, 16 h, read-out: Minimum Inhibitory Concentration (MIC). Put shortly:
as §1

Test [8] concerns E. cloacae 963. Described as above. It counts as cell-based. The settings on record: Enterobacter cloacae, 963, 16 h, read-out: Minimum Inhibitory Concentration (MIC), E. cloacae 963; 10^6 CFU/ml. Put shortly:
as §1

Test [9] deals with S. aureus 209P NIHJ-JC1. Described as above. It counts as cell-based. The settings on record: Staphylococcus aureus, 16 h, read-out: Minimum Inhibitory Concentration (MIC). Put shortly: as §1
In test [10] the test system is E. coli GN5482. The description is as above. The settings on record: Escherichia coli. It counts as cell-based. In a few lines: as §1
The test system of test [11] is S. marcescens No. 16-2. The description is as above. It counts as cell-based. As to conditions: Serratia marcescens, NO.162, 16 h, read-out: Minimum Inhibitory Concentration (MIC). Put shortly:
as §1

Test [12] concerns E. cloacae Nek 39. The description is as above. It counts as cell-based. As to conditions: Enterobacter cloacae, NEK39, 16 h, 10^6 CFU/ml. Put shortly:
as §1

The subject of test [13] is M. morganii GN5407. The description is as above. It counts as cell-based. The settings on record: Morganella morganii, GN5407, 16 h, read-out: Minimum Inhibitory Concentration (MIC), *M. morganii GN5407, lactamase-producing strain; 10^6 CFU/ml. In a few lines:
as §1

The subject of test [14] is K. oxytoca GN10650. The test is described as above. As to conditions: Klebsiella oxytoca, 10^6 CFU/ml. It counts as cell-based. In a few lines: as §1
Test [15] concerns Ps. aeruginosa AKR17. The test is described as above. As to conditions: Pseudomonas aeruginosa, 16 h; Ps. aeruginosa AKR17; 10^6 CFU/ml; read-out: Minimum Inhibitory Concentration (MIC). It counts as cell-based, Pseudomonas aeruginosa. Put shortly: as §1
The test system of test [16] is Ps. aeruginosa IF03445. The description is as above. It counts as cell-based, Pseudomonas aeruginosa. The settings on record: Pseudomonas aeruginosa, 10^6 CFU/ml. Put shortly: as §1
The test system of test [17] is Ps. aeruginosa AK 109. The test is described as above. It counts as cell-based, Pseudomonas aeruginosa. As to conditions: Pseudomonas aeruginosa, AK109, 16 h, read-out: Minimum Inhibitory Concentration (MIC). In a few lines: as §1
The test system of test [18] is A. calcoaceticus No. 4. Described as above. It counts as cell-based, Acinetobacter calcoaceticus. The settings on record: Acinetobacter calcoaceticus, NO.4, 16 h, A. calcoaceticus No. 4; 10^6 CFU/ml; read-out: Minimum Inhibitory Concentration (MIC). In a few lines:
as §1

Test [19] relates to E. coli CSH(RE45). In words: microbe, parasite or virus in culture. It counts as cell-based. As to conditions: Escherichia coli, 16 h, read-out: Minimum Inhibitory Concentration (MIC), *E. coli CSH(RE45), lactamase-producing strain; 10^6 CFU/ml. Put shortly: as §1
Test [20] has as its system E. coli CSH2 (RK1). The experiment in a line: microbe, parasite or virus in culture. It counts as cell-based. As to conditions: Escherichia coli, 16 h, read-out: Minimum Inhibitory Concentration (MIC), *E. coli CSH2 (RK1), lactamase-producing strain; 10^6 CFU/ml. Put shortly:
as §1

Where [21] appears, read: K. pneumoniae PCI-602, read-out: Minimum Inhibitory Concentration (MIC).
The mark [22] stands for this setting: GN5482, 16 h, read-out: Minimum Inhibitory Concentration (MIC), *E. coli GN5482, lactamase-producing strain, 10^6 CFU/ml.
Where [23] appears, read: read-out: Minimum Inhibitory Concentration (MIC), *E. cloacae Nek 39, lactamase-producing strain.
The mark [24] stands for this setting: GN10650, 16 h, read-out: Minimum Inhibitory Concentration (MIC), *K. oxytoca GN10650, lactamase-producing strain.
[25] abbreviates: 16 h, Ps. aeruginosa IF03445, read-out: Minimum Inhibitory Concentration (MIC).
Setting [26] is: Ps. aeruginosa AK 109, 10^6 CFU/ml.
The mark [27] stands for this setting: GN5482, 16 h, read-out: Minimum Inhibitory Concentration (MIC).
[28] abbreviates: *S. marcescens No. 16-2, lactamase-producing strain, 10^6 CFU/ml.
Where [29] appears, read: *E. cloacae Nek 39, lactamase-producing strain, read-out: Minimum Inhibitory Concentration (MIC).
Where [30] appears, read: 16 h, *K. oxytoca GN10650, lactamase-producing strain, read-out: Minimum Inhibitory Concentration (MIC).
Where [31] appears, read: S. aureus 209P NIHJ-JC1, 10^6 CFU/ml, 37° C., 16 hours.

For the molecule `CC(C)(O/N=C(\C(=O)N[C@@H]1C(=O)N2C(C(=O)O)=C(CSc3nc(-c4ccc(O)cc4)cs3)CS[C@H]12)c1csc(N)n1)C(=O)O` [compound 12, disodium 7β-[2-(2-aminothiazol-4-yl)-2-(1-carboxylate-1-methylethoxyimino)acetamido]-3-[4-(4-hydroxyphenyl)thiazol-2-yl]thiomethyl-3-cephem-4-carboxylate, reference compound], the MIC is 3.12 µg/mL in [1]; 0.39 µg/mL in test [2]; < 0.006 µg/mL in test [3]; 3.12 µg/mL in [4]; 0.05 µg/mL in test [5] (setting [21]); 3.12 µg/mL in [6]. Further, the MIC in [7] worked out at 0.78 µg/mL; in [8] it was 3.12 µg/mL; in test [9] it was 3.12 µg/mL; in test [10] (setting [22]), 1.56 µg/mL; in test [11], 12.5 µg/mL; in [12] (setting [23]), 12.5 µg/mL. In addition, the MIC in [13] was 1.56 µg/mL; in [14] (setting [24]), 1.56 µg/mL; in test [15] it was > 100 µg/mL; in [16] (setting [25]), 50 µg/mL; in [17] (setting [26]), 25 µg/mL; in test [18], 100 µg/mL. For the same molecule, the MIC in [19] and in test [20] was 1.56 µg/mL throughout.

Turning to `CO/N=C(\C(=O)N[C@@H]1C(=O)N2C(C(=O)O)=C(CSc3nc(-c4ccc(OC)c(OC)c4)cs3)CS[C@H]12)c1csc(N)n1` [compound 13, trifluoroacetate, reference compound], the MIC is 12.5 µg/mL in test [1]; 3.12 µg/mL in test [2]; 0.05 µg/mL in test [3]; 6.25 µg/mL in test [4]; 0.05 µg/mL in test [5] (setting [21]); 6.25 µg/mL in test [6]. For the same molecule, the MIC in [7] was determined as 3.12 µg/mL; in test [8], 12.5 µg/mL; in [9], 0.39 µg/mL; in test [10] (setting [27]), 3.12 µg/mL; in [11] (setting [28]) it was 50 µg/mL; in [12] (setting [29]) it was 25 µg/mL. Further, the MIC in [13] was 6.25 µg/mL; in test [14] (setting [30]), 25 µg/mL; in [15], > 100 µg/mL; in test [16] (setting [25]), > 100 µg/mL; in test [17] (setting [26]) it was 100 µg/mL; in test [18], 100 µg/mL. Also, the MIC is 6.25 µg/mL in test [19] and 1.56 µg/mL in [20].

With `CC(C)(O/N=C(\C(=O)N[C@@H]1C(=O)N2C(C(=O)O)=C(CSc3nc(C(=O)O)c(-c4ccccc4)s3)CS[C@H]12)c1csc(N)n1)C(=O)O` [compound 14, reference compound], the MIC was 0.78 µg/mL (≈ 1.11 µM) in [1]; 0.025 µg/mL (≈ 0.0355 µM) in test [2]; < 0.006 µg/mL in [3]; 1.56 µg/mL (≈ 2.21 µM) in test [4]; 0.2 µg/mL (≈ 0.284 µM) in test [5] (setting [21]); 1.56 µg/mL (≈ 2.21 µM) in [6]. Moreover, the MIC amounted to 0.1 µg/mL (≈ 0.142 µM) in test [7] (S. marcescens IAM 1184, 10^6 CFU/ml); 1.56 µg/mL (≈ 2.21 µM) in test [8]; 50 µg/mL (≈ 70.9 µM) in test [9] (setting [31]); 3.12 µg/mL (≈ 4.43 µM) in [10] (16 h, *E. coli GN5482, lactamase-producing strain, 10^6 CFU/ml, read-out: Minimum Inhibitory Concentration (MIC)); 25 µg/mL (≈ 35.5 µM) in test [11] (setting [28]); 12.5 µg/mL (≈ 17.7 µM) in [12] (setting [23]). The MIC was 0.2 µg/mL (≈ 0.284 µM) in [13]; 1.56 µg/mL (≈ 2.21 µM) in test [14] (setting [24]); > 100 µg/mL in test [15]; 12.5 µg/mL (≈ 17.7 µM) in test [16] (IF03445, 16 h, read-out: Minimum Inhibitory Concentration (MIC), Ps. aeruginosa IF03445); 12.5 µg/mL (≈ 17.7 µM) in [17]; 50 µg/mL (≈ 70.9 µM) in [18]. For the same molecule, the MIC in test [19] and in [20] was 1.56 µg/mL (≈ 2.21 µM) each time.

For the molecule `CO/N=C(\C(=O)N[C@@H]1C(=O)N2C(C(=O)O)=C(CSc3nc(-c4ccccc4)c(CC(=O)O)s3)CS[C@H]12)c1csc(N)n1` [compound 15, disodium 7β-[2-(2-aminothiazol-4-yl)-2-methoxyiminoacetamido]-3-(5-carboxylatemethyl-4-phenylthiazol-2-yl)thiomethyl-3-cephem-4-carboxylate, reference compound], the MIC was 6.25 µg/mL in [1]; 0.2 µg/mL in test [2]; < 0.006 µg/mL in test [3]; 0.78 µg/mL in test [4]; 0.2 µg/mL in test [5] (setting [21]); 0.78 µg/mL in test [6]. The MIC in [7] amounted to 0.78 µg/mL; in [8] it was 0.39 µg/mL; in test [9], 3.12 µg/mL; in [10] (setting [27]), 3.12 µg/mL; in [11] (setting [28]) it was 50 µg/mL; in test [12] (setting [23]), 12.5 µg/mL. Besides, the MIC in test [13] is 0.39 µg/mL; in test [14] (setting [30]) it was 25 µg/mL; in test [15] it was > 100 µg/mL; in [16] (setting [25]) it was 100 µg/mL; in [17] (setting [26]) it was 100 µg/mL; in test [18] it was 100 µg/mL. The MIC in [19] was 0.78 µg/mL; in test [20], 0.39 µg/mL.

In the case of `CC(C)(O/N=C(\C(=O)N[C@@H]1C(=O)N2C(C(=O)O)=C(CSc3nc(-c4ccccc4)c(CC(=O)O)s3)CS[C@H]12)c1csc(N)n1)C(=O)O` [compound 16, trisodium 7β-[2-(2-aminothiazol-4-yl)-2-(1-carboxylate-1-methylethoxyimino)acetamido]-3-(5-carboxylatemethyl-4-phenylthiazol-2-yl)thio-methyl-3-cephem-4-carboxylate, reference compound], the MIC was 6.25 µg/mL in [1]; 0.2 µg/mL in test [2]; < 0.006 µg/mL in test [3]; 6.25 µg/mL in [4]; 1.56 µg/mL in test [5] (read-out: Minimum Inhibitory Concentration (MIC), K. pneumoniae PCI-602); 3.12 µg/mL in test [6]. The MIC amounted to 1.56 µg/mL in test [7]; 6.25 µg/mL in test [8]; 50 µg/mL in test [9] (setting [31]); 6.25 µg/mL in [10] (setting [22]); 50 µg/mL in test [11] (setting [28]); 25 µg/mL in [12] (setting [29]). Further, the MIC in [13] was 1.56 µg/mL; in test [14] (setting [24]) it was 3.12 µg/mL; in test [15] it was > 100 µg/mL; in [16] (setting [25]), 50 µg/mL; in test [17] (setting [26]), 50 µg/mL; in test [18] it was > 100 µg/mL. The MIC in test [19] came out at 3.12 µg/mL; in test [20], 6.25 µg/mL.
